Data taken from patent US20250369982A1, “METHODS OF DETECTING DDR1 PHOSPHORYLATION” (IncendiaTherapeutics, Inc., priority 2022, published 2025).

Test system: T47D cells
Format: cell-based
Settings: serum-starved T47D cells, 96 hours, compared to DMSO or IgG1 controls
Text: To measure proliferation, Hoechst staining was used to stain nuclei and CellMask™ (Thermo Fisher Scientific) Deep Red was used to stain cell membranes. To measure cell death, Annexin V was used to stain phosphatidylserine on the cell surface, a marker of apoptosis, and Incucyte® Cytotox Green (Sartorius) to stain cells with compromised membrane integrity, a marker of cell death.

CC(=O)O[C@H]1C(=O)[C@@]2(C)[C@H]([C@H](OC(=O)c3ccccc3)[C@]3(O)C[C@H](OC(=O)[C@H](O)[C@@H](NC(=O)c4ccccc4)c4ccccc4)C(C)=C1C3(C)C)[C@]1(OC(C)=O)CO[C@@H]1C[C@@H]2O [paclitaxel]
effect on cell death (Annexin V, Cytotox Green): increased cell death
effect on cell proliferation (nuclei count, total cell area): decreased proliferation
